Source: patent US20090069319A1, “IMIDAZOPYRIDINE ANALOGS AND THEIR USE AS AGONISTS OF THE WNT-BETA-CATENIN CELLULAR MESSAGING SYSTEM” (Wyeth, priority 2007, published 2009)

How the values were obtained:
[1] = system: canonical Wnt-β-catenin cellular messaging system (16xTCF-TK-FireFly-Luci reporter, Wnt3a and Dkk1 co-transfected U2OS cells); assay: Functional Dkk1-LRP5-TCF-Luciferase Assay in U2OS Cells (table columns: A=MAX FOLD Induction/DMSO CONTROL; B=fold induction @ 2.0 uM; C=fold induction @ 20.0 uM); type: cell-based, Human; details: maximum fold induction over DMSO control
Method in brief: (§1)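 U2OS cells co-transfected with 16×TCF-TK-firefly luciferase, TK-Renilla control, Wnt3a and Dkk1, then frozen; thawed cells (~5,000/well, ~5% FBS, phenol red-free RPMI) incubated ~20 h at 37° C. with compound (0.25% DMSO). Firefly luminescence (Bright-Glo) normalized to DMSO mean as fold induction.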

[2] = as above; type: cell-based, Human; details: Homo sapiens; for fold induction at 2 µM / fold induction at 20 µM: U2OS; for fold induction at 2 µM: 2.0 uM compound; for fold induction at 20 µM: 20.0 uM compound; for EC50: U2OS cells, TCF-luciferase reporter
Method in brief: as §1

Compound	A = MAX FOLD Induction/DMSO CONTROL [1]	EC50 [2] [µM]	fold induction at 2 µM [2]	fold induction at 20 µM [2]
c1ccc2cc(-c3ccnc4c3ncn4CCCn3ccnc3)ccc2c1 [3-[3-(1H-imidazol-1-yl)propyl]-7-(2-naphthyl)-3H-imidazo[4,5-b]pyridine]	2.870	10.2	1.76	3.31
Oc1cccc(-c2nc3cc(-c4ccc5ccccc5c4)cnc3n2C2CCNCC2)c1 [3-[6-(2-naphthyl)-3-piperidin-4-yl-3H-imidazo[4,5-b]pyridin-2-yl]phenol]	1.860	1.22		
Oc1cccc(-c2nc3cc(-c4ccc5ccccc5c4)cnc3n2C2CCNCC2)c1O [3-[6-(2-naphthyl)-3-piperidin-4-yl-3H-imidazo[4,5-b]pyridin-2-yl]benzene-1,2-diol]	1.430			
Cc1nc2c(-c3ccc4ccccc4c3)ccnc2n1[C@H]1CCCNC1 [2-methyl-7-(2-naphthyl)-3-[(3S)-piperidin-3-yl]-3H-imidazo[4,5-b]pyridine]	1.910		2.12	0.02
Cc1nc[nH]c1-c1nc2cc(-c3ccc4ccccc4c3)cnc2n1C1CCNCC1 [2-(4-methyl-1H-imidazol-5-yl)-6-(2-naphthyl)-3-piperidin-4-yl-3H-imidazo[4,5-b]pyridine]	1.870			
Cn1ccnc1-c1nc2cc(-c3ccc4ccccc4c3)cnc2n1C1CCNCC1 [2-(1-methyl-1H-imidazol-2-yl)-6-(2-naphthyl)-3-piperidin-4-yl-3H-imidazo[4,5-b]pyridine]	2.720			
Cc1nc2c(-c3ccc4ccccc4c3)ccnc2n1[C@@H]1CCCNC1 [2-methyl-7-(2-naphthyl)-3-[(3R)-piperidin-3-yl]-3H-imidazo[4,5-b]pyridine]	3.570	2.68	2.74	0.05
Oc1ccccc1-c1nc2cc(-c3ccc4ccccc4c3)cnc2n1C1CCNCC1 [2-[6-(2-naphthyl)-3-piperidin-4-yl-3H-imidazo[4,5-b]pyridin-2-yl]phenol]	1.380			
C=Cc1cccc(-c2nc3cc(-c4ccc5ccccc5c4)cnc3n2C2CCNCC2)c1 [6-(2-naphthyl)-3-piperidin-4-yl-2-(3-vinylphenyl)-3H-imidazo[4,5-b]pyridine]	1.290			
c1ccc2cc(-c3cnc4c(c3)nc(-c3ccc5c(c3)OCCO5)n4C3CCNCC3)ccc2c1 [2-(2,3-dihydro-1,4-benzodioxin-6-yl)-6-(2-naphthyl)-3-piperidin-4-yl-3H-imidazo[4,5-b]pyridine]	1.460			
c1ccc2cc(-c3cnc4c(c3)nc(-c3ccc5c(c3)OCO5)n4C3CCNCC3)ccc2c1 [2-(1,3-benzodioxol-5-yl)-6-(2-naphthyl)-3-piperidin-4-yl-3H-imidazo[4,5-b]pyridine]	1.860	0.737		
COc1ncccc1-c1nc2cc(-c3ccc4ccccc4c3)cnc2n1C1CCNCC1 [2-(2-methoxypyridin-3-yl)-6-(2-naphthyl)-3-piperidin-4-yl-3H-imidazo[4,5-b]pyridine]	2.030		2.06	0.02
CS(=O)(=O)N1CCC(n2cnc3c(-c4ccc5ccccc5c4)ccnc32)CC1 [3-[1-(methylsulfonyl)piperidin-4-yl]-7-(2-naphthyl)-3H-imidazo[4,5-b]pyridine]	1.230		1.66	2.52
Cn1cccc1-c1nc2cc(-c3ccc4ccccc4c3)cnc2n1C1CCNCC1 [2-(1-methyl-1H-pyrrol-2-yl)-6-(2-naphthyl)-3-piperidin-4-yl-3H-imidazo[4,5-b]pyridine]	2.470			
COc1cc(-c2nc3cc(-c4ccc5ccccc5c4)cnc3n2C2CCNCC2)ccc1O [2-methoxy-4-[6-(2-naphthyl)-3-piperidin-4-yl-3H-imidazo[4,5-b]pyridin-2-yl]phenol]	2.110	0.486		
Fc1ccc(-c2nc3c(-c4ccc5ccccc5c4)ccnc3n2C2CCNCC2)cc1 [2-(4-fluorophenyl)-7-(2-naphthyl)-3-piperidin-4-yl-3H-imidazo[4,5-b]pyridine]	1.370		2.07	
Oc1ccc(-c2nc3cc(-c4ccc5ccccc5c4)cnc3n2C2CCNCC2)cc1 [4-[6-(2-naphthyl)-3-piperidin-4-yl-3H-imidazo[4,5-b]pyridin-2-yl]phenol]	1.710			
c1c[nH]c(-c2nc3cc(-c4ccc5ccccc5c4)cnc3n2C2CCNCC2)c1 [6-(2-naphthyl)-3-piperidin-4-yl-2-(1H-pyrrol-2-yl)-3H-imidazo[4,5-b]pyridine]	1.580		1.01	1.99
Cc1nc2c(-c3ccc4ccccc4c3)ccnc2n1C1CCNCC1 [2-methyl-7-(2-naphthyl)-3-piperidin-4-yl-3H-imidazo[4,5-b]pyridine]	3.215	0.895	2.84	
COc1ccc(-c2nc3cc(-c4ccc5ccccc5c4)cnc3n2C2CCNCC2)cc1 [2-(4-methoxyphenyl)-6-(2-naphthyl)-3-piperidin-4-yl-3H-imidazo[4,5-b]pyridine]	1.350			
COc1ccc(-c2nc3c(-c4ccc5ccccc5c4)ccnc3n2C2CCNCC2)cc1 [2-(4-methoxyphenyl)-7-(2-naphthyl)-3-piperidin-4-yl-3H-imidazo[4,5-b]pyridine]	1.320		1.98	

The next lines start with results.

A = MAX FOLD Induction/DMSO CONTROL [1]	EC50 [2] [µM]	Compound	fold induction at 2 µM [2]	fold induction at 20 µM [2]
4.260	3.15	c1ccc2cc(-c3ccnc4c3ncn4[C@@H]3CCNC3)ccc2c1 [7-(2-naphthyl)-3-[(3R)-pyrrolidin-3-yl]-3H-imidazo[4,5-b]pyridine]	2.06	1.65
1.460		CC(=O)Nc1ccc(-c2nc3cc(-c4ccc5ccccc5c4)cnc3n2C2CCNCC2)cc1 [N-{4-[6-(2-naphthyl)-3-piperidin-4-yl-3H-imidazo[4,5-b]pyridin-2-yl]phenyl}acetamide]		
2.780		c1ccc2cc(-c3ccnc4c3ncn4[C@H]3CCNC3)ccc2c1 [7-(2-naphthyl)-3-[(3S)-pyrrolidin-3-yl]-3H-imidazo[4,5-b]pyridine]	2.1	0.44
1.360		FC(F)(F)c1ccccc1-c1nc2cc(-c3ccc4ccccc4c3)cnc2n1C1CCNCC1 [6-(2-naphthyl)-3-piperidin-4-yl-2-[2-(trifluoromethyl)phenyl]-3H-imidazo[4,5-b]pyridine]		
3.881	0.725	c1ccc2cc(-c3ccnc4c3ncn4C3CCNCC3)ccc2c1 [7-(2-naphthyl)-3-piperidin-4-yl-3H-imidazo[4,5-b]pyridine]	5.4	0.063
1.650		c1ccc2cc(-c3ccnc4c3nc(-c3ccncc3)n4C3CCNCC3)ccc2c1 [7-(2-naphthyl)-3-piperidin-4-yl-2-pyridin-4-yl-3H-imidazo[4,5-b]pyridine]	1.89	2.27
1.100		c1cncc(-c2nc3cc(-c4ccc5ccccc5c4)cnc3n2C2CCNCC2)c1 [6-(2-naphthyl)-3-piperidin-4-yl-2-pyridin-3-yl-3H-imidazo[4,5-b]pyridine]	1.75	0.005
1.080		CN(C)C(=O)N1CCC(n2cnc3c(-c4ccc5ccccc5c4)ccnc32)CC1 [N,N-dimethyl-4-[7-(2-naphthyl)-3H-imidazo[4,5-b]pyridin-3-yl]piperidine-1-carboxamide]	1.94	2.09
12.158	10.7	O=C1OC2(c3ccc(O)cc3Oc3cc(O)ccc32)c2ccc(NC(=S)N3CCC(n4cnc5c(-c6ccc7ccccc7c6)ccnc54)CC3)cc21 [N-(3′,6′-dihydroxy-3-oxo-3H-spiro[2-benzofuran-1,9′-xanthen]-5-yl)-4-[7-(2-naphthyl)-3H-imidazo[4,5-b]pyridin-3-yl]piperidine-1-carbothioamide]	1.4	6.49
2.303	0.018	c1ccc2cc(-c3ccnc4c3ncn4[C@H]3CCCNC3)ccc2c1 [7-(2-naphthyl)-3-[(3S)-piperidin-3-yl]-3H-imidazo[4,5-b]pyridine]	1.02	0.01
1.710		CC(=O)Nc1ccc(-c2nc3c(-c4ccc5ccccc5c4)ccnc3n2C2CCNCC2)cc1 [N-{4-[7-(2-naphthyl)-3-piperidin-4-yl-3H-imidazo[4,5-b]pyridin-2-yl]phenyl}acetamide]	1.99	
1.930		c1ccc2cc(-c3ccnc4c3ncn4CC3CCNCC3)ccc2c1 [7-(2-naphthyl)-3-(piperidin-4-ylmethyl)-3H-imidazo[4,5-b]pyridine]	2.72	
3.820	0.963	c1ccc2cc(-c3ccnc4c3ncn4[C@@H]3CCCNC3)ccc2c1 [7-(2-naphthyl)-3-[(3R)-piperidin-3-yl]-3H-imidazo[4,5-b]pyridine]	3.48	1.4
